Reference: PMC6562865, “Vitis vinifera L. Leaf Extract Inhibits In Vitro Mediators of Inflammation and Oxidative Stress Involved in Inflammatory-Based Skin Diseases” (Antioxidants, 2019)
Read-outs that look alike come from different tables or passages of the source.

Columns and labels:
[1] = In vitro skin permeation study, Franz diffusion cell method; format: in vitro ADME, human; conditions: for recovery: human
Description: VVWE was characterized by a validated HPLC-DAD method as previously described. Briefly, two different HPLC methods coupled with a Diode Array Detector (DAD) have been used, the first for anthocyanin detection at 520 nm by the use of a Synergi 4u MAX-RP 80 Å column (250 × 4.60 mm × 4 μm) (Phenomenex, Torrance, CA, USA) and the second for flavonols and caffeic acid derivative detection at 360 nm by Synergi 4u MAX-RP 80 Å column (250 × 2 mm × 4 μm) (Phenomenex, Torrance, CA, USA). The anthocyanins standards, hyperoside and kaempferol-3-O-glucoside, were from Extrasynthese (Genay, France); all the other standards and solvents were bought from Sigma-Aldrich (St. Louis, MO, USA).
The human epidermis membrane used for in vitro permeation studies was obtained from the abdominal skin of a single donor. The epidermis was prepared according to the heat separation method, as previously reported.
Ex vivo skin permeation study: the study was performed using the Franz diffusion cell method. The human epidermis was mounted carefully on the receiver compartment of the Franz’s cell with the stratum corneum side in contact with donor solution. The receiver compartment was filled with freshly prepared degassed HCl 0.1 M solution (receiver phase). VVWE (150 mg) solubilized in 0.1 M HCl:EtOH (50:50, v/v) was loaded in the donor compartment (0.5 mL). At predetermined intervals (1, 5, 7, 24, 32, 48 h), 0.2-mL samples were removed from the receiver compartment and immediately replaced with fresh receiver phase. Sink conditions were maintained throughout the experiment. The samples were assayed by HPLC analysis. Four parallel experiments were performed.

IL-8 = IL-8 release in HaCaT cells (ELISA); format: cell-based, human; conditions: for IL-8 release induced by TNF-α, pure compounds: 0.1–100 μM, up to the maximum concentration tested (100 μM)
Experimental: Cells were grown in 24-well plates for 48 h (30,000 cells per well) before the cytokine treatment. IL-8 was quantified using a Human Interleukin-8 ELISA Development Kit as previously described. Preliminary time-course experiments were performed to set the best conditions for further experiments. HaCaT were treated with TNF-α (10 ng/mL), LPS (5 μg/mL), or H2O2 (100 μM), for 3, 6, 24, and 30 h. The IL-8 secretion induced by TNF-α or LPS was tested after 6 h of treatment, while the 24-h time point was chosen for H2O2. Epigallocatechin-3-gallate (EGCG) (20 μM) was used as the reference inhibitor of IL-8 secretion.
(§1) HaCaT cells were grown in 24-well plates for 48 h (30,000 cells per well), washed with phosphate-buffered saline (PBS), and exposed to UVB (40 mJ/cm^2) light source (Triwood 31/36, W36, V230, Helios Italquartz, Milano, Italy) in a glass bath. Radiation time (about 50 s) was adjusted for each experimental day, measuring energy emission by the LP 471 UVB probe (Delta OHM, Padova, Italy). After radiation, serum free fresh culture medium was immediately added. For the evaluation of IL-8 release, cells were treated for additional 9 h, a time point selected in preliminary time-course experiments. For NF-κB (p65) translocation, HaCaT cells were treated for 1 h after UVB radiation. EGCG (20 μM) was used as reference inhibitor.

VEGF = VEGF release in HaCaT cells (ELISA); format: cell-based, human; conditions: 20 μM
Experimental: Cells were grown in 24-well plates for 48 h (30,000 cells per well) before challenge with the pro-inflammatory mediator. VEGF was quantified by the Human VEGF ELISA Development Kit. Briefly, Corning 96-well EIA/RIA plates (Sigma-Aldrich, Milan, Italy) were coated with the antibody provided in the ELISA Kit (PeproTech Inc., London, UK) overnight at 4 °C. After blocking the reaction, 300 μL of samples were transferred into wells at room temperature for 2 h. The amount of VEGF in the samples was detected by spectroscopy (signal read: 450 nm, 0.1 s) as described above. The quantitative measurement of VEGF was done using an optimized standard curve supplied with the ELISA set (100–2000 pg/mL). […] EGCG (20 μM) was used as the reference inhibitor of VEGF secretion.

IL-8 promoter = IL-8 promoter activity, IL-8-LUC transient transfection luciferase assay in HaCaT cells; format: cell-based, human; conditions: transfected HaCaT, 6 h, 20 μM
Experimental: (§2) HaCaT cells were plated in 24-well plates and transiently transfected with the plasmid NF-κB-LUC or native IL-8-LUC, both at 250 ng per well, using Lipofectamine® 2000, according to previous studies. Sixteen hours later, the cells were treated for 6 h with increasing concentrations of VVWE in the presence of the pro-inflammatory mediators (TNF-α at 10 ng/mL or LPS at 5 μg/mL). After six hours, cells were harvested and the luciferase assay was performed using the BriteliteTM Plus reagent (PerkinElmer Inc., Massachusetts, USA) according to the manufacturer’s instructions. Data were expressed considering 100% of the luciferase activity related to the cytokine-induced promoter activity.

MMP-9 = MMP-9 release in HaCaT cells (ELISA); format: cell-based, human; conditions: 20 μM
Experimental: MMP-9 secretion was performed on HaCaT cells treated with TNF-α (10 ng/mL) and (LPS 5 μg/mL) for 3, 6, 24, and 48 h. Cells were grown in 24-well plates (30,000 cell/well) for 48 h, before the treatment. Human MMP-9 ELISA Kit from RayBio® (Norcross GA, USA) was used to quantify MMP-9 secretion according to manufacturer’s instructions. 300 μL of samples in duplicate were transferred into a 96-well plate coated with anti-human MMP-9 and incubated overnight at 4 °C with gentle shaking. MMP-9 secreted was detected by the use of biotinylated and streptavidin–horseradish peroxidase (HRP) conjugate antibodies as previously described. The quantitative measurement of MMP-9 was done using an optimized standard curve supplied with the ELISA kit (8.23–6000 pg/mL). The MMP-9 secretion reached the maximum at 24 h for both TNF-α and LPS. VVWE was tested at 10–50 μg/mL in the presence of stimuli and between 2.5–200 μg/mL without the pro-inflammatory mediators.

NF-κB (p65) = NF-κB (p65) nuclear translocation in HaCaT cells; format: cell-based, human; conditions: 20 μM
Experimental: For the evaluation of the NF-κB (p65) translocation, HaCaT were plated at the concentration of 3 × 10^6 cells/mL in 100-mm plates with fresh complete medium. After 48 h, cells were treated for 1 h with the inflammatory mediators (TNF-α at 10 ng/mL or LPS at 5 μg/mL) and the extract (10–50 μg/mL) under study, using FBS-free medium. Nuclear extracts were prepared using the Nuclear Extraction Kit from the Cayman Chemical Company (Ann Arbor, MI, USA) as previously described.
Data were expressed considering 100% of the absorbance related to the cytokine-induced NF-κB nuclear translocation. EGCG (20 μM) was used as the reference inhibitor of the NF-κB nuclear translocation. The results are the mean ± SD of three experiments in triplicate.
as §1

NF-κB = experiment: NF-κB-driven transcription, NF-κB-LUC transient transfection luciferase assay in HaCaT cells; format: cell-based, human; conditions: transfected HaCaT, 6 h, 20 μM
Experimental: as §2

[2] = human epidermis, Franz cell, 150 mg VVWE, four replicates, read-out: Permeated Amount (% Recovery) (converted)
[3] = human epidermis, Franz cell, 150 mg VVWE, four replicates, read-out: Retained Amount in the Epidermidis (% Recovery) (converted)
[4] = µg per g VVWE, human epidermis, Franz cell, 150 mg VVWE
[5] = µg per g VVWE, human epidermis, Franz cell, 150 mg VVWE, 48 h, receiver phase
[6] = human epidermis, Franz cell, 150 mg VVWE, four replicates

Molecule | recovery [1, 2] [%] | recovery [1, 3] [%] | Retained Amount in the Epidermidis ± SD [1, 4] [µg/g] | Permeated Amount ± SD [1, 5] [µg/g] | Permeated Amount (% Recovery) [1, 6] [%] | Retained Amount in the Epidermidis (% Recovery) [1, 6] [%] | further results
O=C(/C=C/c1ccc(O)c(O)c1)O[C@@H](C(=O)O)[C@@H](O)C(=O)O [Caftaric acid] | 0.476 | 0.102 | 10.20 ± 9.00 | 47.59 ± 27.64 | – | – | Permeated Amount ± SD ([1]; µg per g VVWE, human epidermis, Franz cell, 150 mg VVWE, 48 h, receiver phase, listed as caftaric acid): 47.59 µg/g; Retained Amount in the Epidermidis ± SD ([1]; µg per g VVWE, human epidermis, Franz cell, 150 mg VVWE, listed as caftaric acid): 10.20 µg/g; IL-8 release induced by TNF-α, pure compounds (IL-8): failed to reduce IL-8 release
O=c1c(O[C@@H]2O[C@H](CO)[C@H](O)[C@H](O)[C@H]2O)c(-c2ccc(O)c(O)c2)oc2cc(O)cc(O)c12 [Hyperoside] | 0.02 | 0.058 | 1.34 ± 1.43 | 0.47 ± 0.68 | – | – | –
COc1cc(-c2[o+]c3cc(O)cc(O)c3cc2O[C@@H]2O[C@H](CO)[C@@H](O)[C@H](O)[C@H]2O)cc(OC)c1O [Malvidin 3-O-glucoside] | – | – | 0.29 ± 0.58 | 0.92 ± 1.22 | 0.072 | 0.023 | –
COc1cc(-c2[o+]c3cc(O)cc(O)c3cc2O[C@@H]2O[C@H](CO)[C@@H](O)[C@H](O)[C@H]2O)cc(O)c1O [Petunidin 3-O-glucoside] | – | – | – | – | – | – | Permeated Amount (% Recovery) [1]: 0.058%; Permeated Amount ± SD [1]: 0.38 ± 0.53 µg/g
Epigallocatechin-3-gallate [EGCG] | – | – | – | – | – | – | inhibition of H2O2-induced VEGF secretion (VEGF; H2O2 100 μM, 24 h): 100%; inhibition of LPS-induced VEGF secretion (VEGF; LPS 5 μg/mL, 30 h): 100%; inhibition of TNF-α-induced VEGF secretion (VEGF; TNF-α 10 ng/mL, 24 h): 78.7%; inhibition of LPS-induced IL-8 promoter activity (IL-8 promoter; LPS 5 μg/mL): 33.3%; inhibition of TNF-α-induced IL-8 promoter activity (IL-8 promoter; TNF-α 10 ng/mL): 35.9%; inhibition of LPS-induced MMP-9 secretion (MMP-9; LPS 5 μg/mL, 30 h): no inhibition; inhibition of TNF-α-induced MMP-9 secretion (MMP-9; TNF-α 10 ng/mL, 24 h): 38.0%; inhibition of LPS-induced IL-8 secretion (IL-8; LPS 5 μg/mL, 6 h, 20 μM): 84.9%; inhibition of TNF-α-induced IL-8 secretion (IL-8; TNF-α 10 ng/mL, 6 h, 20 μM): 62.1%; inhibition of UVB-induced IL-8 secretion (IL-8; UVB 40 mJ/cm^2, 9 h, 20 μM): 61.7%; inhibition of LPS-induced NF-κB nuclear translocation (NF-κB (p65); LPS 5 μg/mL, 1 h): 53.2%; inhibition of TNF-α-induced NF-κB nuclear translocation (NF-κB (p65); TNF-α 10 ng/mL, 1 h): 62.4%; inhibition of UVB-induced NF-κB nuclear translocation (NF-κB (p65); UVB 40 mJ/cm^2, 1 h): 39.1%; inhibition of LPS-induced NF-κB-driven transcription (NF-κB; LPS 5 μg/mL): 29.9%; inhibition of TNF-α-induced NF-κB-driven transcription (NF-κB; TNF-α 10 ng/mL): 59.9%
OC[C@H]1O[C@@H](Oc2cc3c(O)cc(O)cc3[o+]c2-c2cc(O)c(O)c(O)c2)[C@H](O)[C@@H](O)[C@@H]1O [Delphinidin 3-O-glucoside] | – | – | 0.04 ± 0.08 | 0.48 ± 0.68 | 0.050 | 0.004 | –
O=c1c(O[C@@H]2O[C@H](CO)[C@@H](O)[C@H](O)[C@H]2O)c(-c2ccc(O)cc2)oc2cc(O)cc(O)c12 [Kaempferol 3-O-glucoside] | – | – | 3.53 ± 3.90 | 2.09 ± 1.70 | 0.055 | 0.094 | –
O=C(O)[C@H]1O[C@@H](Oc2c(-c3ccc(O)c(O)c3)oc3cc(O)cc(O)c3c2=O)[C@H](O)[C@@H](O)[C@@H]1O [Quercetin 3-O-glucuronide] | – | – | – | – | – | – | Permeated Amount (% Recovery) [1]: 0.177%; IL-8 release induced by TNF-α, pure compounds (IL-8): failed to reduce IL-8 release
COc1cc(-c2[o+]c3cc(O)cc(O)c3cc2O[C@@H]2O[C@H](CO)[C@@H](O)[C@H](O)[C@H]2O)ccc1O [Peonidin 3-O-glucoside] | – | – | 0.58 ± 1.17 | 2.17 ± 2.72 | 0.114 | 0.030 | –
OC[C@H]1O[C@@H](Oc2cc3c(O)cc(O)cc3[o+]c2-c2ccc(O)c(O)c2)[C@H](O)[C@@H](O)[C@@H]1O [Cyanidin 3-O-glucoside] | – | – | 0.30 ± 0.60 | 1.63 ± 2.08 | 0.071 | 0.013 | –
C[C@@H]1O[C@@H](OC[C@H]2O[C@@H](Oc3c(-c4ccc(O)c(O)c4)oc4cc(O)cc(O)c4c3=O)[C@H](O)[C@@H](O)[C@@H]2O)[C@H](O)[C@H](O)[C@H]1O [Rutin] | 0.023 | 0.061 | 0.80 ± 0.91 | 0.30 ± 0.35 | – | – | –
O=c1c(O[C@@H]2O[C@H](CO)[C@@H](O)[C@H](O)[C@H]2O)c(-c2ccc(O)c(O)c2)oc2cc(O)cc(O)c12 [Quercetin 3-O-glucoside] | 0.04 | 0.063 | 13.58 ± 15.88 | 8.74 ± 9.50 | – | – | Permeated Amount ± SD ([1]; µg per g VVWE, human epidermis, Franz cell, 150 mg VVWE, 48 h, receiver phase, listed as quercetin 3-O-glucoside): 8.74 µg/g; Retained Amount in the Epidermidis ± SD ([1]; µg per g VVWE, human epidermis, Franz cell, 150 mg VVWE, listed as quercetin 3-O-glucoside): 13.58 µg/g; IL-8 release induced by TNF-α, pure compounds (IL-8): failed to reduce IL-8 release
